Source: patent publication US20080241258A1, “TREATMENT OF DISEASES WITH NANOPARTICLES HAVING A SIZE-DEPENDENT CYTOTOXICITY” (priority 2007, published 2008)
pIC50: −log10 of the molar value.

What was measured:
[1] = Stability (aggregation) of Au compounds in serum containing cell culture media, scored from microscopic pictures; assay type: physicochemical; set-up: key: Material aggregation was scored positive (+); negative (−); settings: for Aggregation at 12 hours: sign after slash; for Aggregation at 5 minutes: sign in front of slash
Source text: Next applicant tested the stability of the materials in the serum containing cell culture media formulated for proper growth of the cell lines used in this study. Applicant reasoned that the medium composition might affect particle aggregation and that aggregation of materials would greatly influence the endocytic pathway and ultimately the cellular trajectories of materials precluding or favoring intracellular targets. Macroscopic and microscopic aspects of medium-material combinations in the absence of any cells were studied by applicant.
Materials were grouped according to their stability in specific media and over time.
Material stability was assayed in DMEM high glucose (H). DMEM low glucose (L) and RPMI 1640 including 10% fetal calf serum. Material aggregation was scored positive (+) or negative (−) from microscopic pictures taken after 5 minutes (sign in from of slash) and 12 hours incubation (sign after slash).

[2] = system: HeLa cervix carcinoma epithelial cells; test: MTT cytotoxicity assay, logarithmic growth phase; assay type: cell-based; settings: FIG. 3A, at ˜10 μM ligand
Source text: Applicant quantified the toxicity of Au compounds in four cell lines determining the inhibitory concentrations that effected 50% growth inhibition (IC50) in MTT assays. Applicant reasoned that actively growing and dividing cells during logarithmic growth should be more vulnerable to toxic insults than cells in near or at the stationary phase of cell culture. Thus, applicant determined growth curves for all cell lines to estimate the logarithmic and stationary growth phases in relation to the number of cells seeded into each well of a 96-well cell culture plate. […] This graph serves as a reference to estimate whether cells were in the logarithmic or in the stationary phase of cell culture at the start of any given experiment. […] The bottom panel depicts the protocol of cytotoxicity testing starting during the logarithmic (left bottom panel) or the stationary growth phase (right bottom panel).
Having established growth characteristics for the reporter cell lines applicant treated the cells with Au compounds for up to 48 hours to observe the full effect of toxicity. […]
FIG. 3 A): HeLa cells were plated at 2000 cells/well and grown for 3 days into the logarithmic growth phase. […] Shown are the logarithmic curve fits of tabulated MTT readings. […] All concentrations relate to the amount of gold [Au] detected by AAS in the authentic samples after performing the cytotoxicity test. […]

[3] = system: HeLa, SK-MeI-28, L929 and J774A1 cells; test: MTT cytotoxicity assay in four cell lines
Source text: Applicant tested the cytotoxicity of these particles in four cell lines representing major functional cell types with barrier and phagocyte function.
Applicant added Au compounds to HeLa cervix carcinoma epithelial cells (HeLa), SK-MeI-28 melanoma cells (SK-MeI-28), L929 mouse fibroblasts (L929) and J774A.1 mouse monocytic/macrophage cells (J774A1) and first studied their response by light and electron microscopy.
Applicant quantified the toxicity of Au compounds in four cell lines determining the inhibitory concentrations that effected 50% growth inhibition (IC50) in MTT assays. […] Thus, applicant determined growth curves for all cell lines to estimate the logarithmic and stationary growth phases in relation to the number of cells seeded into each well of a 96-well cell culture plate.
Having established growth characteristics for the reporter cell lines applicant treated the cells with Au compounds for up to 48 hours to observe the full effect of toxicity. […] Applicant performed toxicity tests both during the logarithmic and the stationary phase of cell growth following the time course depicted in FIG. 2, lower panels.
FIG. 3 A): HeLa cells were plated at 2000 cells/well and grown for 3 days into the logarithmic growth phase. […] All concentrations relate to the amount of gold [Au] detected by AAS in the authentic samples after performing the cytotoxicity test. […]

[4] = DMEM high glucose (H) including 10% fetal calf serum
[5] = DMEM low glucose (L) including 10% fetal calf serum
[6] = RPMI 1640 including 10% fetal calf serum

| Compound | Aggregation at 12 hours [1, 4] | Aggregation at 5 minutes [1, 4] | Aggregation at 12 hours [1, 5] | Aggregation at 5 minutes [1, 5] | Aggregation at 12 hours [1, 6] | Aggregation at 5 minutes [1, 6] | ligand toxicity [2] | non-toxic at up to x fold higher concentration (than 1.4 nm nanoclusters) ([3]; four cell lines) | pIC50 ([3]; read-out: cytotoxicity: non-toxic at concentrations up to, all cells tested) |
| --- | --- | --- | --- | --- | --- | --- | --- | --- | --- |
| [Au+3].[Cl-].[Cl-].[Cl-].[Cl-].[H+] [HAuCl4] | −/− | −/− | −/− | −/− | −/− | −/− |  |  |  |
| [Cl][Au-]([Cl])([Cl])[Cl].[Na+] [NaAuCl4] | −/− | −/− | −/− | −/− | −/− | −/− |  |  |  |
| O=S(=O)([O-])c1cccc(P(c2ccccc2)c2ccccc2)c1.[Na+] [TPPMS, triphenylphosphine monosulfonate] | −/− | −/− | −/− | −/− | −/− | −/− | non-toxic |  |  |
| O=S(=O)([O-])c1cccc(P(c2cccc(S(=O)(=O)[O-])c2)c2cccc(S(=O)(=O)[O-])c2)c1.[Na+].[Na+].[Na+] [TPPTS, triphenylphosphine trisulfonate] | −/− | −/− | −/− | −/− | −/− | −/− | non-toxic |  |  |
| gold thiomalate [Tauredon] | +/+ | +/+ | +/+ | +/+ | + | − |  | up to 1000 fold | < 2.00 |
